ChEMBL document CHEMBL3244168, “Synthesis and antitumor activity of preactivated isophosphamide analogues bearing modified alkylating functionalities” (J Med Chem, 1978)
Values after ≈ are worked out from the molar mass of the structure shown.

Tests used:
[1] = system: L1210; assay: Cytotoxicity against mouse L1210 cells assessed as growth inhibition after 72 hrs; format: functional; settings: L1210, 72 h, read-out: ED50 (the source's name)
[2] = system: L1210; assay: Antileukemic activity against mouse L1210 cells allografted in ip dosed BDF1 mouse administered 24 hrs; format: functional
[3] = system: L1210; assay: Ratio of ILSmax to ILS30 for antileukemic activity against mouse L1210 cells allografted in ip dosed BDF1 mouse; format: functional
[4] = system: L1210; assay: Antileukemic activity against mouse L1210 cells allografted in ip dosed BDF1 mouse assessed as maximum tolerated dose for survival over 30 days administered 24 hrs; format: functional
[5] = system: L1210; assay: Antileukemic activity against mouse L1210 cells allografted in BDF1 mouse assessed as mean survival time at 70 mg/kg, ip administered 24 hrs (Rvb 4.6 +/- 0.16 days); format: functional; settings: route intraperitoneal
[6] = system: L1210; assay: Antileukemic activity against mouse L1210 cells allografted in BDF1 mouse assessed as mean survival time at 130 mg/kg, ip administered 24 hrs (Rvb 4.6 +/- 0.16 days); format: functional; settings: route intraperitoneal
[7] = system: L1210; assay: Antileukemic activity against mouse L1210 cells allografted in BDF1 mouse assessed as mean survival time at 330 mg/kg, ip administered 24 hrs (Rvb 4.6 +/- 0.16 days); format: functional; settings: route intraperitoneal
[8] = system: L1210; assay: Antileukemic activity against mouse L1210 cells allografted in BDF1 mouse assessed as mean survival time at 530 mg/kg, ip administered 24 hrs (Rvb 4.6 +/- 0.16 days); format: functional; settings: route intraperitoneal
[9] = system: L1210; assay: Antileukemic activity against mouse L1210 cells allografted in BDF1 mouse assessed as increase in life span at 70 mg/kg, ip administered 24 hrs relative to control; format: functional; settings: route intraperitoneal
[10] = system: L1210; assay: Antileukemic activity against mouse L1210 cells allografted in BDF1 mouse assessed as increase in life span at 130 mg/kg, ip administered 24 hrs relative to control; format: functional; settings: route intraperitoneal
[11] = system: L1210; assay: Antileukemic activity against mouse L1210 cells allografted in BDF1 mouse assessed as increase in life span at 330 mg/kg, ip administered 24 hrs relative to control; format: functional; settings: route intraperitoneal
[12] = system: L1210; assay: Antileukemic activity against mouse L1210 cells allografted in BDF1 mouse assessed as increase in life span at 530 mg/kg, ip administered 24 hrs relative to control; format: functional; settings: route intraperitoneal
[13] = system: L1210; assay: Antileukemic activity against mouse L1210 cells allografted in iv dosed BDF1 mouse assessed as survival over 60 days administered 24 hrs; format: functional; settings: read-out: MED
[14] = system: L1210; assay: Antileukemic activity against mouse L1210 cells allografted in po dosed BDF1 mouse assessed as survival over 60 days administered 24 hrs; format: functional; settings: read-out: MED
[15] = system: L1210; assay: Antileukemic activity against mouse L1210 cells allografted in iv dosed BDF1 mouse assessed as maximum tolerated dose for survival over 60 days administered 24 hrs; format: functional
[16] = system: L1210; assay: Antileukemic activity against mouse L1210 cells allografted in po dosed BDF1 mouse assessed as maximum tolerated dose for survival over 60 days administered 24 hrs; format: functional
[17] = system: L1210; assay: Ratio of Cmax to Cmin for antileukemic activity against mouse L1210 cells allografted in iv dosed BDF1 mouse assessed as survival over 60 days; format: functional
[18] = system: L1210; assay: Ratio of Cmax to Cmin for antileukemic activity against mouse L1210 cells allografted in po dosed BDF1 mouse assessed as survival over 60 days; format: functional
[19] = system: Mus musculus; assay: Toxicity in BDF1 mouse allografted with mouse L1210 cells assessed as mortality at 80 mg/kg, ip administered 24 hrs measured within 30 days; format: organism-based; design: dose 80 mg/kg, route intraperitoneal; settings: in vivo

Row | Structure (SMILES) | EC50 [1] [µg/mL] | ILS30 [2] [mg/kg] | Ratio [3] | ILSmax [4] [mg/kg] | also measured
1 | CN(CCBr)P1(=O)OCCC(OO)N1CCCl (stereo not drawn) | 0.3 (≈ 0.853 µM) | 6 | 12 | 70 | –
2 | O=P1(NCCCl)OCCCN1CCCl (stereo not drawn) [IFOSFAMIDE] | – | – | – | – | MST [5]: 8.8 days; MST [6]: 11.9 days; MST [7]: >24.3 days; MST [8]: >16.5 days; ILS at 70 mg/kg [9]: 90%; ILS at 130 mg/kg [10]: 158%; ILS at 330 mg/kg [11]: > 427%; ILS at 530 mg/kg [12]: > 251%; minimal effective dose [13]: 280 mg/kg; minimal effective dose [14]: 250 mg/kg; MTD [15]: 320 mg/kg; MTD [16]: 250 mg/kg; Ratio [17]: 1.1; Ratio [18]: 1
3 | CCN(CCCl)P1(=O)OCCC(OO)N1CCOS(C)(=O)=O (stereo not drawn) | 0.5 (≈ 1.31 µM) | 6 | 12 | 70 | –
4 | O=P1(NCCBr)OCCC(OO)N1CCBr (stereo not drawn) | 2 (≈ 5.24 µM) | 6 | 12 | 70 | –
5 | CN(CCCl)P1(=O)OCCC(OO)N1CCBr (stereo not drawn) | 0.5 (≈ 1.42 µM) | 7 | 5 | 35 | –
6 | CS(=O)(=O)OCCNP1(=O)OCCC(OO)N1CCOS(C)(=O)=O (stereo not drawn) | 3.9 (≈ 9.46 µM) | 25 | 2 | 50 | –
7 | CN(CCBr)P1(=O)OCCC(OO)N1CCOS(C)(=O)=O (stereo not drawn) | 1 (≈ 2.43 µM) | 3 | 20 | 60 | –
8 | CS(=O)(=O)OCCN1C(OO)CCOP1(=O)N(CCCl)CCCl (stereo not drawn) | 0.06 (≈ 0.144 µM) | 10 | 8 | 80 | Activity [19]: Toxic
